Measurements from patent US20250082656A1, “DOSAGE REGIMENS FOR TREATMENT OF DENGUE INFECTION” (Atea Pharmaceuticals, Inc., priority 2022, published 2025).

Tests used:
DENV2 RdRp domain = DENV2 RdRp domain (Dengue virus type 2, UniProt P14340); test: Thermal shift assay, DENV2 RdRp domain; settings: read-out: ΔTM
[1] = In vivo formation of AT-9010 in PBMCs, mice
[2] = In vivo formation of AT-9010 in PBMCs, monkeys; set-up: species or system cynomolgus monkeys; settings: single oral Compound 2 equivalent to 55 mg/kg Compound 1, 12 h
Protocol: Monkeys were given an oral dose of Compound 2 (AT-752) equivalent to Compound 1 (AT-281) at 55 mg/kg and blood collected at 12, 24 and 48 h. […] Mouse PBMCs were pooled from 3 animals per time point; Rat and monkey data expressed as mean+/−SD (n=2-3 per time point). […] The experimental procedure is provided in Example 15.
Male non-naïve cynomolgus monkeys (Hainan Jingang Laboratory Animal Co. Ltd., China), at least 2 kg body weight, were individually housed during the study in stainless steel mesh cages, provided ad libitum access to RO water, fed twice daily (except on the day of dosing when they were fed once) with ˜60 g Certified Monkey Diet each feed (Beijing Vital Keao Feed Co., Ltd., Beijing, China) and given daily treats of fresh fruit. They (n=5) were administered a dose of Compound 2 (AT-752) at 300 mg/kg in 40% PEG400, 10% solutol HS15, 50% 100 mM citrate buffer, pH 4.5 (v/v) by oral gavage, and blood samples (˜0.5 mL) were collected at 1, 2, 4, 8, 12 and 24 h post dose. Plasma was separated at each time point for pharmacokinetics, and stored at −70° C. […]
Pharmacokinetic measurements for FIGS. 11, 12, 13, 14, and 15 were analyzed using LC-MS/MS according to the protocol described herein. […]

[3] = Cytotoxicity in H1-HeLa cells; type: cell-based; settings: human, Table 2, H1-HeLa
Protocol: To assess the antiviral specificity of Compound 1 (AT-281), serial dilutions were incubated with various host cell lines infected with a panel of DNA and RNA viruses other than flaviviruses. The activity of Compound 1 (AT-281) was measured in infected cells using the neutral red assay to determine the effective concentration required to inhibit viral replication 50% (EC50) (described in Example 3) and the threshold concentration required to obtain a perceptible effect on 50% of the cells incubated without virus (CC50). Compound 1 (AT-281) had no activity against the DNA viruses tested and was only weakly or not active against several RNA viruses (Table 2).

Structure (SMILES)	ΔTm at 100 µM (DENV2 RdRp domain) [°C]	concentration of AT-9010 in PBMCs ([1]; loading dose 500 mg/kg then 250 mg/kg 4 h later, 4 h after the second dose) [pmol/10^6 cells]	concentration of AT-9010 in PBMCs ([1]; loading dose 500 mg/kg then 250 mg/kg 4 h later, 12 h after the second dose) [pmol/10^6 cells]	concentration of AT-9010 in PBMCs ([1]; single oral dose 50 mg/kg, 12 h) [pmol/10^6 cells]	concentration of AT-9010 in PBMCs [2] [pmol/10^6 cells]	CC50 [3] [µM]
C[C@@]1(F)[C@H](O)[C@@H](COP(=O)(O)OP(=O)(O)OP(=O)(O)O)O[C@H]1n1cnc2c(=O)[nH]c(N)nc21 [Compound 5]	3.8 ± 0.1	0.297	0.322	0.092	0.070±0.046	
CNc1nc(N)nc2c1ncn2[C@@H]1O[C@H](CO[P@](=O)(N[C@@H](C)C(=O)OC(C)C)Oc2ccccc2)[C@@H](O)[C@@]1(C)F [Compound 1, isopropyl ((R)-(((2R,3R,4R,5R)-5-(2-amino-6-(methylamino)-9H-purin-9-yl)-4-fluoro-3-hydroxy-4-methyltetrahydrofuran-2-yl)methoxy)(phenoxy)phosphoryl)-L-alaninate]						> 100
